Measured values as given in patent publication US11395847B2, “Acylated GLP-1/GLP-2 dual agonists” (Zealand Pharma A/S, priority 2016, dated 2022).
Where a SMILES comes first, the peptide text is derived from it.

Columns and labels:
[1] = target: T1, human GLP-2 receptor (Homo sapiens, UniProt O95838, D470N); assay: GLP-2 receptor potency assay (cAMP ALPHASCREEN, HEK293 cells stably expressing GLP-2 R); type: cell-based; conditions: cAMP response, HEK293 cells expressing human GLP-2 R; read-out: EC50 GLP-2
T1 construct: expressed in transfected cells
T1 sequence (O95838 1-553 D470N): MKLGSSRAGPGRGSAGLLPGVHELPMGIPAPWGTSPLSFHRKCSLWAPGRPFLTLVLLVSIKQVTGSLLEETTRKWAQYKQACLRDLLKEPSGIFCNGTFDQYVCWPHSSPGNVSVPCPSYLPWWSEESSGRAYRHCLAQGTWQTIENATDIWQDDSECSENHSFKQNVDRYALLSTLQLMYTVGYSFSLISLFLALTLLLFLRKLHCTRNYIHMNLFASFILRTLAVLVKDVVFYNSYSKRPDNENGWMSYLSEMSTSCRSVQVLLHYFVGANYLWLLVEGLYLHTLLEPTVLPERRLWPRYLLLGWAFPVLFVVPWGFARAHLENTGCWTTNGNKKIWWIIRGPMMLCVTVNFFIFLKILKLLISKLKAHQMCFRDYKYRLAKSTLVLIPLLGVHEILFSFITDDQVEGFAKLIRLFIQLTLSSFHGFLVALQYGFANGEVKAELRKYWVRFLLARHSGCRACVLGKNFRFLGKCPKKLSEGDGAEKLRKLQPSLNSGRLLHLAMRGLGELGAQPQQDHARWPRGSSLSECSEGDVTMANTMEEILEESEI
In short: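 HEK293 clones stably transfected with the human GLP-2 receptor, selected with G418, were used. Intracellular cAMP was quantified by AlphaScreen. Responses were normalised to positive and vehicle controls, and EC50 and maximal response were taken from concentration-response curves.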

[2] = test system: Normal chow-fed C57BL/6J male mice; assay: Effect on fasting glucose and intestinal weight in normal mice; type: in vivo; conditions: for Small intestinal wet weight: 100 nmol/kg s.c. once daily for 4 days, sacrificed 24 hours after final dosing; for Fasting blood glucose: 100 nmol/kg s.c., day 0 after a single injection, fasted mice
Protocol: Normal chow-fed C57BL/6J male mice were used. The mice were kept in standard housing conditions, light-, temperature-, and humidity-controlled room (12:12 h light-dark cycle, with lights on at 06.00-18.00 h; 20-22° C.; 50-80% relative humidity). Each dosing group consisted of 6 animals. Mice were dosed once daily with 100 nmol/kg with the test compounds or vehicle for 4 days via subcutaneous administration.
On day 0 mice were fasted and blood glucose levels measured after a single s.c. injection with peptides. Animals were sacrificed 24 hours after final dosing on day 3, and small intestinal wet weights were measured.

[3] = target: T2, human GLP-1 receptor (Homo sapiens, UniProt P43220); assay: GLP-1 receptor potency assay (cAMP ALPHASCREEN, HEK293 cells stably expressing GLP-1 R); type: cell-based; conditions: cAMP response, HEK293 cells expressing human GLP-1 R
T2 construct: expressed in transfected cells
T2 sequence (P43220 24-463): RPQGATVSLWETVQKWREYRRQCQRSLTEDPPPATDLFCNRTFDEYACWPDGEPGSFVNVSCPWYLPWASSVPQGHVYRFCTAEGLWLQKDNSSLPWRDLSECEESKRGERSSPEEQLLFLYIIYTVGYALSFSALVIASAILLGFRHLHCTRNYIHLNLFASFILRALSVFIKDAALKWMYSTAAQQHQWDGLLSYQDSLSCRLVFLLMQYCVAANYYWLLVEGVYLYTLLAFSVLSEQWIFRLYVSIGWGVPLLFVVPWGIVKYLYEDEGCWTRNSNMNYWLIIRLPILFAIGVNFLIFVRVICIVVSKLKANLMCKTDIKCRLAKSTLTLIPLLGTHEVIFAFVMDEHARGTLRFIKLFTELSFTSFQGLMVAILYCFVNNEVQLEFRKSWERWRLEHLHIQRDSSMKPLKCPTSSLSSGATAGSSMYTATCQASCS
In short: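 Clonal HEK293 line stably transfected with human GLP-1R (G418-selected) was treated with test compounds and the cAMP response quantified by ALPHASCREEN. Signals were normalized to positive control and vehicle, with EC50 and maximal response taken from concentration-response curves.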

Structure (SMILES)	EC50 [1] [pM]	Small intestinal wet weight [2] [g]	Fasting blood glucose [2] [mM]	EC50 [3] [pM]
CC[C@H](C)[C@H](NC(=O)[C@H](Cc1ccccc1)NC(=O)[C@H](CC(=O)O)NC(=O)[C@H](CCCNC(=N)N)NC(=O)[C@H](C)NC(=O)[C@H](C)NC(=O)[C@H](CCC(N)=O)NC(=O)[C@H](CCCCNC(=O)COCCOCCNC(=O)[C@H](CCCCN)NC(=O)[C@H](CCC(=O)O)NC(=O)[C@H](CCCCN)NC(=O)CC[C@H](NC(=O)CCCCCCCCCCCCCCCCCCC(=O)O)C(=O)O)NC(=O)[C@H](CC(=O)O)NC(=O)[C@H](CC(C)C)NC(=O)[C@@H](NC(=O)[C@@H](NC(=O)[C@H](C)NC(=O)[C@H](CC(C)C)NC(=O)[C@H](CCC(=O)O)NC(=O)[C@H](CO)NC(=O)[C@H](CO)NC(=O)[C@H](Cc1ccccc1)NC(=O)[C@@H](NC(=O)CNC(=O)[C@H](CCC(=O)O)NC(=O)C(C)(C)NC(=O)[C@@H](N)Cc1c[nH]cn1)[C@@H](C)O)[C@@H](C)O)[C@@H](C)CC)C(=O)N[C@@H](C)C(=O)N[C@@H](Cc1c[nH]c2ccccc12)C(=O)N[C@@H](CC(C)C)C(=O)N[C@H](C(=O)N[C@@H](CCC(=O)O)C(=O)N[C@@H](Cc1c[nH]cn1)C(=O)N[C@@H](CCCCN)C(=O)N[C@H](C(=O)N[C@H](C(=O)N[C@@H](CC(=O)O)C(=O)O)[C@@H](C)O)[C@@H](C)CC)[C@@H](C)CC [Compound 50] (HELM PEPTIDE1{H.[Aib].E.G.T.F.S.S.E.L.A.T.I.L.D.K.Q.A.A.R.D.F.I.A.W.L.I.E.H.K.I.T.D}|PEPTIDE2{[O=C(O)CCCCCCCCCCCCCCCCCCC(=O)[*:2]].[gGlu].K.E.K.[O=C(COCCOCCN[*:1])[*:2]]}$PEPTIDE1,PEPTIDE2,16:R3-6:R2$$$V2.0)	56	1.43	5.57	310
CC[C@H](C)[C@H](NC(=O)[C@H](Cc1ccccc1)NC(=O)[C@H](CC(=O)O)NC(=O)[C@H](CCCNC(=N)N)NC(=O)[C@H](C)NC(=O)[C@H](C)NC(=O)[C@H](CCCCNC(=O)CC[C@H](NC(=O)CCCCCCCCCCCCCCCCC(=O)O)C(=O)O)NC(=O)CNC(=O)[C@H](CC(=O)O)NC(=O)[C@H](CC(C)C)NC(=O)[C@@H](NC(=O)[C@@H](NC(=O)[C@H](C)NC(=O)[C@H](CC(C)C)NC(=O)[C@H](CCC(=O)O)NC(=O)[C@H](CO)NC(=O)[C@@H](NC(=O)[C@H](Cc1ccccc1)NC(=O)[C@@H](NC(=O)CNC(=O)[C@H](CCC(=O)O)NC(=O)C(C)(C)NC(=O)[C@@H](N)Cc1c[nH]cn1)[C@@H](C)O)[C@@H](C)O)[C@@H](C)O)[C@@H](C)CC)C(=O)N[C@@H](C)C(=O)N[C@@H](Cc1c[nH]c2ccccc12)C(=O)N[C@@H](CC(C)C)C(=O)N[C@H](C(=O)N[C@@H](CCC(=O)O)C(=O)N[C@@H](Cc1c[nH]cn1)C(=O)N[C@@H](CCCCN)C(=O)N[C@H](C(=O)N[C@H](C(=O)N[C@@H](CC(=O)O)C(=O)O)[C@@H](C)O)[C@@H](C)CC)[C@@H](C)CC [Compound 9] (HELM PEPTIDE1{H.[Aib].E.G.T.F.T.S.E.L.A.T.I.L.D.G.K.A.A.R.D.F.I.A.W.L.I.E.H.K.I.T.D}|PEPTIDE2{[O=C(O)CCCCCCCCCCCCCCCCC(=O)[*:2]].[gGlu]}$PEPTIDE1,PEPTIDE2,17:R3-2:R2$$$V2.0)	56	1.11	4.98	–
